Literature values as cited in PMC11982978, “Cancer hotspot mutations rewire ERK2 specificity by selective exclusion of docking interactions” (The Journal of Biological Chemistry, 2025).

System: WT ERK2
Conditions: selective conditions (-His); hits Z > 3; average of three screens; cited from earlier work
From the text: Supplement mmc2.xlsx, sheet "WT Hits" | column: Z-score

Row | Sequence | Z-score (ES) of hit sequences, WT ERK2 Y2H screen
1 | AAGRRAAPYLVLTA [TFR2, D-site 14-mer in ELK1 Y2H prey] | 3.19
2 | AKRRIANLKIQLAK [WWC1, D-site 14-mer in ELK1 Y2H prey] | 3.55
3 | ALLRKINQVLLFLL [GLT8D2, D-site 14-mer in ELK1 Y2H prey] | 5.93
4 | ARGQRSVLQVPLPV [CRNKL1, D-site 14-mer in ELK1 Y2H prey] | 4.21
5 | CELPRRNCLLPFSN [NSD1, D-site 14-mer in ELK1 Y2H prey] | 3.49
6 | CKLKMKPRPIAILQ [TTN, D-site 14-mer in ELK1 Y2H prey] | 7.96
7 | DTPIRKKEELLFDD [FBF1, D-site 14-mer in ELK1 Y2H prey] | 3.49
8 | EEEFRKLTNVRIMK [PTPRE, D-site 14-mer in ELK1 Y2H prey] | 8.60
9 | EERKTKRPSLRLFG [PPARGC1A, D-site 14-mer in ELK1 Y2H prey] | 4.99
10 | EKIKVKSTEVEILE [MUM1, D-site 14-mer in ELK1 Y2H prey] | 3.47
11 | EKVKRKKNVLRLCC [PRAME, D-site 14-mer in ELK1 Y2H prey] | 4.69
12 | FTLKAKRPGLRLPD [FLRT1, D-site 14-mer in ELK1 Y2H prey] | 4.42
13 | GLTARRLLPLRLPP [MLYCD, D-site 14-mer in ELK1 Y2H prey] | 14.29
14 | GRPLRLPPPLRLLR [GNAS, D-site 14-mer in ELK1 Y2H prey] | 3.08
15 | HFRHKSQLRLHLRQ [BCL6, D-site 14-mer in ELK1 Y2H prey] | 5.64
16 | IFQRQRVDALLLDL [MED6, D-site 14-mer in ELK1 Y2H prey] | 7.05
17 | IKMKPKPRILSIKS [MAP9, D-site 14-mer in ELK1 Y2H prey] | 3.08
18 | IPKNRIHHKLVLPS [CENPC, D-site 14-mer in ELK1 Y2H prey] | 3.05
19 | ITKAIRDRLLFLRQ [NBAS, D-site 14-mer in ELK1 Y2H prey] | 3.64
20 | ITSKQRPRKLTLMG [MTOR, D-site 14-mer in ELK1 Y2H prey] | 4.58
21 | KCSRKKKPKLSLKA [L3MBTL3, D-site 14-mer in ELK1 Y2H prey] | 10.66
22 | KGKSKRKKDLRISC [MAP2K3, D-site 14-mer in ELK1 Y2H prey] | 10.02
23 | KGVKHRPPPIKLPS [SUPT20H, D-site 14-mer in ELK1 Y2H prey] | 18.07
24 | KKARGKPVRLRLSS [MELK, D-site 14-mer in ELK1 Y2H prey] | 7.57

Row | Sequence | Z-score (ES) of hit sequences, WT ERK2 Y2H screen
25 | KKFRHRPEPLFIPP [TRERF1, D-site 14-mer in ELK1 Y2H prey] | 19.05
26 | KKGVKPKLVLNVTS [CMYA5, D-site 14-mer in ELK1 Y2H prey] | 4.91
27 | KKRKIPKLVLRINA [DENND2A, D-site 14-mer in ELK1 Y2H prey] | 11.21
28 | KKRKKKRLVINLSS [TTLL6, D-site 14-mer in ELK1 Y2H prey] | 10.00
29 | KKSRVPPPPILLSR [CFAP54, D-site 14-mer in ELK1 Y2H prey] | 11.93
30 | KKTRKLKIALALSD [PLCZ1, D-site 14-mer in ELK1 Y2H prey] | 3.78
31 | KLDKSPFVVVSVVG [TTC28, D-site 14-mer in ELK1 Y2H prey] | 3.83
32 | KPLKKKPTPVLLPQ [SEC63, D-site 14-mer in ELK1 Y2H prey] | 3.34
33 | KQGGRKPKPLWLSP [KIAA0556, D-site 14-mer in ELK1 Y2H prey] | 4.98
34 | KQRKLSPLRLSVSN [KMT2E, D-site 14-mer in ELK1 Y2H prey] | 4.49
35 | KRSKKNSLALSLTA [ESR1, D-site 14-mer in ELK1 Y2H prey] | 5.11
36 | KRWLRKPRPVSLFS [GTF3C1, D-site 14-mer in ELK1 Y2H prey] | 5.35
37 | KSRQKNPRSLCIQP [MTUS1, D-site 14-mer in ELK1 Y2H prey] | 4.97
38 | KTKRNKILKLKFPR [ATP8B1, D-site 14-mer in ELK1 Y2H prey] | 3.62
39 | KTQRLDVAKVCLGN [IFT140, D-site 14-mer in ELK1 Y2H prey] | 4.26
40 | LKQRRRAQKLHFLQ [DDX54, D-site 14-mer in ELK1 Y2H prey] | 3.41
41 | LKQRTRPLLINLSK [MCTP2, D-site 14-mer in ELK1 Y2H prey] | 3.77
42 | LQRKGGPTRLTLPS [CMIP, D-site 14-mer in ELK1 Y2H prey] | 4.12
43 | LRKKPDLSPLKLTI [TTC41P, D-site 14-mer in ELK1 Y2H prey] | 5.81
44 | LRPLRPKPPLLLPK [RREB1, D-site 14-mer in ELK1 Y2H prey] | 9.18
45 | LRVRKARPQLILSR [NOL9, D-site 14-mer in ELK1 Y2H prey] | 4.35
46 | MQKKIKIPKLSLNH [BEND5, D-site 14-mer in ELK1 Y2H prey] | 3.94
47 | NGRREKRKQLTLPS [TBX2, D-site 14-mer in ELK1 Y2H prey] | 10.21
48 | NKSLKNQHGLTLQL [ZNF534, D-site 14-mer in ELK1 Y2H prey] | 12.39

Row | Sequence | Z-score (ES) of hit sequences, WT ERK2 Y2H screen
49 | NQKKPALKKLTLLP [IWS1, D-site 14-mer in ELK1 Y2H prey] | 4.19
50 | PDGKKRRKVLALPS [RBM28, D-site 14-mer in ELK1 Y2H prey] | 5.03
51 | PDRKAKPTPLDLRN [GAB2, D-site 14-mer in ELK1 Y2H prey] | 7.63
52 | PDRKVKPAPLEIKP [GAB1, D-site 14-mer in ELK1 Y2H prey] | 10.25
53 | PFGSRRSSAIGIEN [RAP1GAP, D-site 14-mer in ELK1 Y2H prey] | 5.61
54 | PGKRGRPRKLKLCK [MGA, D-site 14-mer in ELK1 Y2H prey] | 8.03
55 | PGRRQNTIVVKVPG [BANP, D-site 14-mer in ELK1 Y2H prey] | 5.25
56 | PIKQKRKLRIFISN [SMARCD1, D-site 14-mer in ELK1 Y2H prey] | 4.04
57 | PKDKKRPTPLEIGY [PCLO, D-site 14-mer in ELK1 Y2H prey] | 4.93
58 | PKGKNRPSSLNLDP [ARHGAP31, D-site 14-mer in ELK1 Y2H prey] | 3.62
59 | PKRKEPGRSLRIKV [DNAJC27, D-site 14-mer in ELK1 Y2H prey] | 6.00
60 | PLPRRTRRPLLLPR [HPS4, D-site 14-mer in ELK1 Y2H prey] | 7.88
61 | PMKQKRKLRLYISN [SMARCD3, D-site 14-mer in ELK1 Y2H prey] | 6.57
62 | PPVKKKPKLLNLKD [SIN3A, D-site 14-mer in ELK1 Y2H prey] | 4.29
63 | PTKTKPKKLLFLGS [SMG1, D-site 14-mer in ELK1 Y2H prey] | 3.46
64 | PWRTTKPQPLVLSQ [PROX2, D-site 14-mer in ELK1 Y2H prey] | 3.19
65 | QGKTKRPVDLKIKN [TAGAP, D-site 14-mer in ELK1 Y2H prey] | 3.38
66 | QLPPRKLPTLKLTP [MTX3, D-site 14-mer in ELK1 Y2H prey] | 3.25
67 | QVKLRSRTSLTLPR [RGL1, D-site 14-mer in ELK1 Y2H prey] | 4.63
68 | QVPKKAWRKLKLPG [DCAF11, D-site 14-mer in ELK1 Y2H prey] | 5.07
69 | RKARRLEPGLLLPG [SOX18, D-site 14-mer in ELK1 Y2H prey] | 7.78
70 | RKEVKRKKVVHMNK [RNF151, D-site 14-mer in ELK1 Y2H prey] | 6.59
71 | RKKDRPRKHLTLNN [SP100, D-site 14-mer in ELK1 Y2H prey] | 3.83
72 | RKKKLTMRPLVLQK [MAP3K19, D-site 14-mer in ELK1 Y2H prey] | 3.59
